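Five compound concentrations were applied to cells in 96-well plates for 48 hours; endpoints were derived by simple linear interpolation of the resulting dose-response curve. GI50: concentration for 50% inhibition of growth. TGI denotes the concentration required for complete inhibition of growth.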

One experiment concerns HCT-15 colon. The experiment can be described thus: NCI tumour cell line growth inhibition, 48 h.
As to `Fc1c(F)c(C(F)(F)F)c(F)c(F)c1N/N=C\c1c[nH]c2ccccc12`, the TGI turned out to be 12.8 µM.
Consider `COc1cc2c(/C=C3/C(=O)Nc4ccc(Cl)cc43)c(Cl)n(Cc3ccccc3)c2cc1C`, for which the TGI was found to be 17.8 µM.
On the same count and under the same terms, the value for `O=C(O)C(=C\c1ccc2c(c1)OCO2)/C(=C/c1ccc2c(c1)OCO2)C(=O)O` was greater than 100 µM.
As to `COc1ccc(-c2ccc(-c3ccc(C(=N)N)nc3)s2)cc1`, the GI50 was 1.27 µM and the TGI turned out to be 2.7 µM.
Take `N#CC(C#N)=CN1CCN(C(=O)c2ccco2)C1=S`: the GI50 was 5.23 µM and the TGI was greater than 100 µM.
For `COc1ccc2c(c1)CC[C@@H]1[C@@H]2CC[C@]2(C)C(=O)C3(CCCCC3)C[C@@H]12` the same measures were greater than 100 µM and greater than 100 µM.
The compound `NS(=O)(=O)c1cc2c(cc1Cl)NC(C(=O)c1cc(=O)c3ccc(O)cc3o1)=NS2(=O)=O` came in with a TGI greater than 100 µM.
On to `CC(=O)OCC(=O)[C@@]1(O)CC[C@H]2[C@@H]3CCC4=CC(=O)[C@H](C)C[C@]4(C)[C@H]3[C@@H](O)C[C@@]21C`, for which the TGI is greater than 100 µM.
Still for that read-out and setting: for `O=C(NO)c1ccc([N+](=O)[O-])cc1` the value was greater than 100 µM; for `Cc1c(C#N)c2nnn(C)c(=O)n2c1-c1ccccc1`, greater than 100 µM.

The subject of the next experiment is OVCAR-8 ovarian. The experiment can be described thus: NCI tumour cell line growth inhibition, 48 h.
In turn, `Fc1c(F)c(C(F)(F)F)c(F)c(F)c1N/N=C\c1c[nH]c2ccccc12` displayed a TGI of 21.8 µM.
Take `O=C(O)C(=C\c1ccc2c(c1)OCO2)/C(=C/c1ccc2c(c1)OCO2)C(=O)O`: the TGI was greater than 100 µM.
For the compound `COc1ccc(-c2ccc(-c3ccc(C(=N)N)nc3)s2)cc1`, the GI50 was 2.12 µM and the TGI is 4.87 µM.
`N#CC(C#N)=CN1CCN(C(=O)c2ccco2)C1=S`: the GI50 was 14.6 µM and the TGI was greater than 100 µM.
For `COc1ccc2c(c1)CC[C@@H]1[C@@H]2CC[C@]2(C)C(=O)C3(CCCCC3)C[C@@H]12` the same measures were greater than 100 µM and greater than 100 µM.
In turn, `NS(=O)(=O)c1cc2c(cc1Cl)NC(C(=O)c1cc(=O)c3ccc(O)cc3o1)=NS2(=O)=O` came in with a TGI greater than 100 µM.
`CC(=O)OCC(=O)[C@@]1(O)CC[C@H]2[C@@H]3CCC4=CC(=O)[C@H](C)C[C@]4(C)[C@H]3[C@@H](O)C[C@@]21C`: the TGI was greater than 100 µM.
Still for that read-out and setting: for `O=C(NO)c1ccc([N+](=O)[O-])cc1` the value was greater than 100 µM.
On the same count and under the same terms, for `Cc1c(C#N)c2nnn(C)c(=O)n2c1-c1ccccc1` the value was greater than 100 µM.

The subject of another experiment is NCI-H23 lung. The experiment is described as follows: NCI tumour cell line growth inhibition, 48 h.
`Fc1c(F)c(C(F)(F)F)c(F)c(F)c1N/N=C\c1c[nH]c2ccccc12` returned a TGI of 16.4 µM.
For the compound `COc1cc2c(/C=C3/C(=O)Nc4ccc(Cl)cc43)c(Cl)n(Cc3ccccc3)c2cc1C`, the TGI was determined as 7.46 µM.
`O=C(O)C(=C\c1ccc2c(c1)OCO2)/C(=C/c1ccc2c(c1)OCO2)C(=O)O` returned a TGI greater than 100 µM.
Regarding `COc1ccc(-c2ccc(-c3ccc(C(=N)N)nc3)s2)cc1`, the GI50 is 1.84 µM and the TGI turned out to be 3.46 µM.
For `N#CC(C#N)=CN1CCN(C(=O)c2ccco2)C1=S` the same measures were 5.78 µM and 22.5 µM.
With `COc1ccc2c(c1)CC[C@@H]1[C@@H]2CC[C@]2(C)C(=O)C3(CCCCC3)C[C@@H]12`, the GI50 was greater than 100 µM and the TGI was greater than 100 µM.
In turn, `NS(=O)(=O)c1cc2c(cc1Cl)NC(C(=O)c1cc(=O)c3ccc(O)cc3o1)=NS2(=O)=O` gave a TGI greater than 100 µM.
The same measure, in the same setting: for `CC(=O)OCC(=O)[C@@]1(O)CC[C@H]2[C@@H]3CCC4=CC(=O)[C@H](C)C[C@]4(C)[C@H]3[C@@H](O)C[C@@]21C` the value was greater than 100 µM; for `O=C(NO)c1ccc([N+](=O)[O-])cc1`, greater than 100 µM; for `Cc1c(C#N)c2nnn(C)c(=O)n2c1-c1ccccc1`, greater than 100 µM.

For the next experiment, the system named is CAKI-1 renal. The experiment can be described thus: NCI tumour cell line growth inhibition, 48 h.
Take `Fc1c(F)c(C(F)(F)F)c(F)c(F)c1N/N=C\c1c[nH]c2ccccc12`: the TGI is 8.14 µM.
Same read-out and setting: the value for `COc1cc2c(/C=C3/C(=O)Nc4ccc(Cl)cc43)c(Cl)n(Cc3ccccc3)c2cc1C` was 10.6 µM.
The same measure, in the same setting: the value for `O=C(O)C(=C\c1ccc2c(c1)OCO2)/C(=C/c1ccc2c(c1)OCO2)C(=O)O` was greater than 100 µM.
Consider `COc1ccc(-c2ccc(-c3ccc(C(=N)N)nc3)s2)cc1`, for which the GI50 is 1.64 µM and the TGI was 3 µM.
Turning to `N#CC(C#N)=CN1CCN(C(=O)c2ccco2)C1=S`, the GI50 was 4.76 µM and the TGI is 30.5 µM.
For `COc1ccc2c(c1)CC[C@@H]1[C@@H]2CC[C@]2(C)C(=O)C3(CCCCC3)C[C@@H]12`, in that order: 31.9 µM and greater than 100 µM.
As for `NS(=O)(=O)c1cc2c(cc1Cl)NC(C(=O)c1cc(=O)c3ccc(O)cc3o1)=NS2(=O)=O`, the TGI was greater than 100 µM.
In turn, `CC(=O)OCC(=O)[C@@]1(O)CC[C@H]2[C@@H]3CCC4=CC(=O)[C@H](C)C[C@]4(C)[C@H]3[C@@H](O)C[C@@]21C` showed a TGI greater than 100 µM.
As to `O=C(NO)c1ccc([N+](=O)[O-])cc1`, the TGI was greater than 100 µM.
In the case of `Cc1c(C#N)c2nnn(C)c(=O)n2c1-c1ccccc1`, the TGI was greater than 100 µM.

The next experiment has as its system MOLT-4 leukemia. The experiment can be described thus: NCI tumour cell line growth inhibition, 48 h.
In turn, `Fc1c(F)c(C(F)(F)F)c(F)c(F)c1N/N=C\c1c[nH]c2ccccc12` displayed a TGI of 10.3 µM.
Take `COc1cc2c(/C=C3/C(=O)Nc4ccc(Cl)cc43)c(Cl)n(Cc3ccccc3)c2cc1C`: the TGI came out at 5.02 µM.
For the compound `O=C(O)C(=C\c1ccc2c(c1)OCO2)/C(=C/c1ccc2c(c1)OCO2)C(=O)O`, the TGI is greater than 100 µM.
For the compound `N#CC(C#N)=CN1CCN(C(=O)c2ccco2)C1=S`, the GI50 was 5.22 µM and the TGI was greater than 100 µM.

(Values after PubChem BioAssay (NCI).)
